Measured values as given in ChEMBL document CHEMBL3244003, “Synthesis and biological activity of several amino analogues of thymidine” (1978).
Calls of active or inactive are those of the source. The calls are words filed in the database; no cut-off is given here.

Legend:
Human alphaherpesvirus 1 = experiment: Antiviral activity against HSV1 at 400 uM; type: functional
CCRF S-180 [1] = experiment: Antineoplastic activity against mouse S180 cells at 400 uM; type: functional, cell-based
L1210 [2] = experiment: Antineoplastic activity against mouse L1210 cells at 400 uM; type: functional, cell-based
CCRF S-180 [3] = experiment: Antineoplastic activity against mouse S180 cells at 50 uM; type: functional
L1210 [4] = experiment: Antineoplastic activity against mouse L1210 cells at 25 uM in presence of deoxyguanosine relative to compound alone; type: functional
CCRF S-180 [5] = experiment: Antineoplastic activity against mouse S180 cells at 5 uM; type: functional
L1210 [6] = experiment: Antineoplastic activity against mouse L1210 cells at 25 uM in presence of cytidine relative to compound alone; type: functional
L1210 [7] = experiment: Antineoplastic activity against mouse L1210 cells at 1 uM in presence of deoxyadenosine relative to compound alone; type: functional
L1210 [8] = experiment: Antineoplastic activity against mouse L1210 cells at 25 uM in presence of deoxycytidine relative to compound alone; type: functional
L1210 [9] = experiment: Antineoplastic activity against mouse L1210 cells at 50 uM; type: functional
L1210 [10] = experiment: Antineoplastic activity against mouse L1210 cells at 25 uM in presence of deoxyadenosine relative to compound alone; type: functional
L1210 [11] = experiment: Antineoplastic activity against mouse L1210 cells at 250 uM; type: functional
L1210 [12] = experiment: Antineoplastic activity against mouse L1210 cells at 5 uM in presence of cytidine relative to compound alone; type: functional
L1210 [13] = experiment: Antineoplastic activity against mouse L1210 cells at 5 uM in presence of deoxyuridine relative to compound alone; type: functional
L1210 [14] = experiment: Antineoplastic activity against mouse L1210 cells at 0.5 uM; type: functional
L1210 [15] = experiment: Antineoplastic activity against mouse L1210 cells at 500 uM; type: functional
L1210 [16] = experiment: Antineoplastic activity against mouse L1210 cells at 1 uM in presence of thymidine relative to compound alone; type: functional
L1210 [17] = experiment: Antineoplastic activity against mouse L1210 cells at 15 uM; type: functional
L1210 [18] = experiment: Antineoplastic activity against mouse L1210 cells at 25 uM in presence of uridine relative to compound alone; type: functional
L1210 [19] = experiment: Antineoplastic activity against mouse L1210 cells at 1 uM in presence of uridine relative to compound alone; type: functional
L1210 [20] = experiment: Antineoplastic activity against mouse L1210 cells at 3 uM; type: functional
L1210 [21] = experiment: Antineoplastic activity against mouse L1210 cells at 25 uM in presence of deoxyuridine relative to compound alone; type: functional
L1210 [22] = experiment: Antineoplastic activity against mouse L1210 cells at 27 uM in presence of thymidine relative to compound alone; type: functional
L1210 [23] = experiment: Antineoplastic activity against mouse L1210 cells at 1 uM in presence of deoxyuridine relative to compound alone; type: functional
L1210 [24] = experiment: Antineoplastic activity against mouse L1210 cells at 1 uM; type: functional
CCRF S-180 [25] = experiment: Antineoplastic activity against mouse S180 cells at 25 uM; type: functional
L1210 [26] = experiment: Antineoplastic activity against mouse L1210 cells at 1 uM in presence of cytidine relative to compound alone; type: functional
L1210 [27] = experiment: Antineoplastic activity against mouse L1210 cells at 5 uM in presence of deoxycytidine relative to compound alone; type: functional
L1210 [28] = experiment: Antineoplastic activity against mouse L1210 cells at 3 uM in presence of thymidine relative to compound alone; type: functional
L1210 [29] = experiment: Antineoplastic activity against mouse L1210 cells at 9 uM in presence of thymidine relative to compound alone; type: functional
CCRF S-180 [30] = experiment: Antineoplastic activity against mouse S180 cells at 250 uM; type: functional
L1210 [31] = experiment: Antineoplastic activity against mouse L1210 cells at 5 uM in presence of uridine relative to compound alone; type: functional
CCRF S-180 [32] = experiment: Antineoplastic activity against mouse S180 cells at 1 uM; type: functional
L1210 [33] = experiment: Antineoplastic activity against mouse L1210 cells at 5 uM in presence of deoxyadenosine relative to compound alone; type: functional
L1210 [34] = experiment: Antineoplastic activity against mouse L1210 cells at 5 uM in presence of deoxyguanosine relative to compound alone; type: functional
L1210 [35] = experiment: Antineoplastic activity against mouse L1210 cells at 25 uM; type: functional
L1210 [36] = experiment: Antineoplastic activity against mouse L1210 cells at 1 uM in presence of deoxycytidine relative to compound alone; type: functional
L1210 [37] = experiment: Antineoplastic activity against mouse L1210 cells at 1 uM in presence of deoxyguanosine relative to compound alone; type: functional

## Cc1cn([C@H]2C[C@H](O)[C@@H](CN)O2)c(=O)[nH]c1=O
Human alphaherpesvirus 1
  inhibition at 400 µM: 98%
CCRF S-180 [1]
  inhibition: inactive
L1210 [2]
  inhibition: inactive

## Cc1cn([C@H]2C[C@H](N)[C@@H](CN)O2)c(=O)[nH]c1=O
Human alphaherpesvirus 1
  inhibition: inactive
CCRF S-180 [1]
  inhibition: inactive
L1210 [2]
  inhibition: inactive

## Cc1cn([C@H]2C[C@H](N)[C@@H](CO)O2)c(=O)[nH]c1=O [3-AMINO- 3-DEOXYTHYMIDINE]
CCRF S-180 [3]
  inhibition at 50 µM: 66%
L1210 [4]
  inhibition at 25 µM: 102%
CCRF S-180 [5]
  inhibition at 5 µM: 55%
L1210 [6]
  inhibition at 25 µM: 99%
L1210 [7]
  inhibition at 1 µM: 89%
L1210 [8]
  inhibition at 25 µM: 28%
L1210 [9]
  inhibition at 50 µM: 92%
L1210 [10]
  inhibition at 25 µM: 93%
L1210 [11]
  inhibition at 250 µM: 93%
L1210 [12]
  inhibition at 5 µM: 100%
L1210 [13]
  inhibition at 5 µM: 74%
L1210 [14]
  inhibition at 0.5 µM: 43%
L1210 [15]
  inhibition at 500 µM: 95%
L1210 [16]
  inhibition at 1 µM: 75.2%
L1210 [17]
  inhibition at 15 µM: 91%
L1210 [18]
  inhibition at 25 µM: 95%
L1210 [19]
  inhibition at 1 µM: 100%
L1210 [20]
  inhibition at 3 µM: 87%
L1210 [21]
  inhibition at 25 µM: 48%
L1210 [22]
  inhibition at 27 µM: 22.4%
Human alphaherpesvirus 1
  inhibition at 400 µM: 62%
L1210 [23]
  inhibition at 1 µM: 88%
L1210 [24]
  inhibition at 1 µM: 58%
CCRF S-180 [25]
  inhibition at 25 µM: 68%
L1210 [26]
  inhibition at 1 µM: 100%
L1210 [27]
  inhibition at 5 µM: 61%
L1210 [28]
  inhibition at 3 µM: 55.2%
L1210 [29]
  inhibition at 9 µM: 38.1%
CCRF S-180 [30]
  inhibition at 250 µM: 73%
L1210 [31]
  inhibition at 5 µM: 99%
CCRF S-180 [32]
  inhibition at 1 µM: 37%
L1210 [33]
  inhibition at 5 µM: 89%
L1210 [34]
  inhibition at 5 µM: 86%
L1210 [35]
  inhibition at 25 µM: 88%
L1210 [36]
  inhibition at 1 µM: 80%
L1210 [37]
  inhibition at 1 µM: 87%
